# Assay results: patent EP0005541A2, “Substituted piperidine, morpholine or piperidone derivatives, fungicides containing these compounds, process for their preparation and their use, and the use of these compounds as fungicides” (F. HOFFMANN-LA ROCHE & CO. Aktiengesellschaft, priority 1978, dated 1979)
# Experiments:
# Format in all cases: in vivo
# Erysiphe graminis = Erysiphe graminis protective spray test on barley seedlings (greenhouse); conditions: barley seedlings HERTA, infected 2 days after spraying, read 7 days after infection vs infected untreated control
# Procedure: 30-40 Gerstenkeimlinge der Sorte HERTA (verteilt auf 2 Töpfe mit 7 cm Durchmesser) wurden jeweils im Einblattstadium mit einer wässerigen Dispersion der Testsubstanz (wie allgemein üblich aufbereitet als Spritzpulver) allseitig gründlich besprüht und anschliessend bei 22-26°C, 80% rel. Luftfeuchtigkeit und einer Photoperiode von 16 Stunden im Gewächshaus weiterkultiviert. Die Infektion erfolgte 2 Tage nach der Behandlung durch Bestäuben der Versuchspflanzen mit Kon dien von Erysiphe graminis. 7 Tage nach der Infektion wurde ::ie durch Erysiphe graminis befallene Blattfläche in % gegenüber derjenigen der infizierten, nicht behandelten Kontrolle ermittelt. Die Resultate sind in Tabelle I zusammengefasst.
# Puccinia coronata = Puccinia coronata protective spray test on oat seedlings; conditions: oat seedlings FLAEMINGSKRONE, infected 2 days after spraying, read on day 9 after infection vs infected untreated control
# Procedure: 30-40 Haferkeimlinge der Sorte FLAEMINGSKRONE (verteilt auf 2 Töpfe mit 7 cm Durchmesser) wurden jeweils im Einblattstadium mit einer wässerigen Dispersion der Testsubstanz (wie allgemein üblich aufbereitet als Spritzpulver) allseitig gründlich besprüht und anschliessend in einer Klimakabine bei 17°C. 70-80% rel. Luftfeuchtigkeit und einer Photoperiode von 16 Stunden weiterkultiviert. Nach 2 Tagen erfolgte die Infektion der Versuchspflanzen durch Besprühen mit in dest. Wasser suspendierten Uredosporen (300'000 Sporen/ml) vor. Puccinia coronata. Danach wurden die Pflanzen während 24 Stunden bei 20°C und einer Luftfeuchtigkeit von über 90W im Dunkeln inkubiert und anschliessend in ein Gewächshaus mit einer Temperatur von 22-26 °C, einer rel. Luftfeuchtigkeit von 70% und einer Photoperiode von 18 Stunden übe führt. Am 9. Tage nach der Infektion wurde die durch Pucrinia coronata befallene Blattfläche in % gegenüber der infizierten, nicht behandelten Kontrolle ermittelt. Die ResLltate sind in Tabelle I zusammengefasst.
# Venturia inaequalis = Venturia inaequalis protective spray test on apple seedlings; conditions: infected 2 days after spraying, read on day 13 after infection vs infected untreated control
# Procedure: 3 Apfelpflänzchen (verteilt auf 3 Töpfe mit 5 cm Durchmesser) aus Samen der Sorte GOLDIN DELICIOUS wurden im 4- bis 5-Blattstadium mit einer wässerigen Dispersion der Testsubstanz (wie allgemein üblich aufbereitet als Spritzpulver) allseitig gründlich besprüht. Die behandelten Pflanzen wurden anschliessend während 2 Tagen bei 17°C, 70-80%rel. Luftfeuchtigkeit und einer Photoperiode von 14 Stunden weiterkultiviert. Danach erfolgte die Infektion der Apfelsämlinge durch Besprühen mit in dest. Wasser suspendierten Konidien (200'000 Konidien/ml) von Venturia inaequalis. Nach der Infektion wurden die Pflanzen im Dunkeln während 48 Stunden bei 16-18°C und einer rel. Luftfeuchtigkeit von über 90% inkubiert und anschliessend in ein schattiertes Gewächshaus mit einer Temperatur von 22-26 °C und einer rel. Luftfeuchtigkeit von über 80% überführt. Am 13. Tage nach der Infektion erfolgte die Ermittlung der durch Venturia inaequalis befallenen Blattfläche gegenüber der infizierten, nicht behandelten Kontrolle. Die Resultate sind in Tabelle II zusammengefasst.
Structure (SMILES),Wirkung (in %) Erysiphe graminis (Erysiphe graminis; 5 mg/l Spritzbrühe) [%],Wirkung (in %) Erysiphe graminis (Erysiphe graminis; 16 mg/l Spritzbrühe) [%],Wirkung (in %) Erysiphe graminis (Erysiphe graminis; 50 mg/l Spritzbrühe) [%],Wirkung (in %) Erysiphe graminis (Erysiphe graminis; 160 mg/l Spritzbrühe) [%],Wirkung (in %) Erysiphe graminis (Erysiphe graminis; 500 mg/l Spritzbrühe) [%],Wirkung (in %) Puccinia coronata (Puccinia coronata; 5 mg/l Spritzbrühe) [%],Wirkung (in %) Puccinia coronata (Puccinia coronata; 16 mg/l Spritzbrühe) [%],Wirkung (in %) Puccinia coronata (Puccinia coronata; 50 mg/l Spritzbrühe) [%],Wirkung (in %) Puccinia coronata (Puccinia coronata; 160 mg/l Spritzbrühe) [%],Wirkung (in %) Puccinia coronata (Puccinia coronata; 500 mg/l Spritzbrühe) [%],Wirkung (in %) Venturia inaequalis (Venturia inaequalis; 5 mg/l Spritzbrühe) [%],Wirkung (in %) Venturia inaequalis (Venturia inaequalis; 16 mg/l Spritzbrühe) [%],Wirkung (in %) Venturia inaequalis (Venturia inaequalis; 50 mg/l Spritzbrühe) [%],Wirkung (in %) Venturia inaequalis (Venturia inaequalis; 160 mg/l Spritzbrühe) [%],Wirkung (in %) Venturia inaequalis (Venturia inaequalis; 500 mg/l Spritzbrühe) [%]
CC(CN1CCCCC1)C(O)c1ccc(C(C)(C)C)cc1 (stereo not drawn) [α-(p-tert.-Butyl-phenyl)-β-methyl-1-piperidin-propanol],75,80,87,98,98,10,30,80,100,100,10,20,43,93,100
"CC(CN1CCC2(CC1)OCCO2)=C(C)c1ccc(C(C)(C)C)cc1 [1-[3-(p-tert.-Butyl-phenyl)-2,3-dimethyl-2-propenyl]-4,4-äthylendioxy-piperidin]",80,98,98,100,100,98,100,100,100,100,0,0,20,37,83
"CC(CN1CCC(=O)CC1)=C(C)c1ccc(C(C)(C)C)cc1 [1-[3-(p-tert.-Butyl-phenyl)-2,3-dimethyl-2-propenyl]-4-piperidon]",0,60,100,100,100,0,25,100,100,100,0,10,20,37,83
"CC(Cc1ccc(C(C)(C)CCl)cc1)CN1CC(C)CC(C)C1 (centres unmarked) [1-/3-[p-(2-Chlor-1,1-dimethyl-äthyl)-phenyl]-2-methyl-propyl/-3,5-dimethyl-piperidin]",85,92,100,100,100,40,98,100,100,100,20,33,77,87,99
CC(Cc1ccc(C(C)(C)C)cc1)CN1CCC(=O)CC1 (centres unmarked) [1-[3-(p-tert.-Butyl-phenyl)-2-methyl-propyl]-4-piperidon],75,80,93,100,,0,0,0,0,98,0,0,0,10,90
